# Where two headings read alike, the source gives them in different places.
# Assays:
# α-amylase = α-amylase inhibition assay (starch-iodine); assay type: biochemical; details: for α-Amylase Inhibition, Inhibition Ratio (%): at 1 × 10^−5 M
# Procedure: (§1) Sucrase and maltase were obtained from the intestinal brush border of Wistar rats. […] Each stock solution was prepared with distilled water. All other solvents and chemicals were of analytical purity.
# α-amylase was pre-incubated with different compound concentrations (0.016–100 μmol/L) at 37 °C for 15 min, and the reaction was initiated with the addition of 100 µL of 0.04% starch solution. After incubation at 37 °C for 10 min, 0.1 M iodine reagent was added. Absorption at 660 nm was measured to determine the remaining amount of starch in the reaction and thus calculate the inhibitory effect in the different samples.
# maltase = maltase (Rattus norvegicus, UniProt D3ZTX4); assay: Enzyme-kinetic analysis on maltase (Lineweaver–Burk plots); assay type: biochemical, Wistar rats; details: maltose substrate
# Procedure: as §1
# (§2) Lineweaver–Burk double reciprocal plots (LB plots) were then obtained to calculate the kinetic constants and evaluate inhibitory type, the equation is as follows: 1/V = (Km + [S])/(Vmax[S]) = (Km/Vmax) * (1/[S]) + (1/Vmax),
# (§3) In this equation, [S] denotes the concentration of substrate, V represents the enzyme reaction velocity and Km is the Michaelis–Menten constant.
# sucrase [1] = molecular target: T1, sucrase (Rattus norvegicus, UniProt P23739); assay: α-glucosidase inhibition assay, sucrase (sucrose substrate, glucose oxidase readout); assay type: biochemical, Wistar rats; details: for Sucrase Inhibition, Inhibition Ratio (%): at 4 × 10^−5 M
# T1 construct: Sucrase and maltase were obtained from the intestinal brush border of Wistar rats; from tissue; host or cells: intestinal brush border of Wistar rats
# Procedure: as §1
# The modified inhibitory screening system was used to determine inhibitory activity on α-glucosidase. Selected starch, sucrose, and maltose were used as α-glucosidase substrates instead of p-nitrophenyl glucopyranoside. Maltase and sucrase were pre-incubated with different concentrations of compound (0.004–400 μmol/L) at 37 °C for 8 min, and the substrate was then added into initiate the reaction. After incubation at 37 °C for 40 min, 150 μL of glucose oxidase solution was added to each mixture and incubated at 37 °C for 40 min. […] Inhibitory percentage values were calculated using the formula: %Inhibition = (B − C)/B × 100, where B is the formation of glucose under the enzyme without compound and C is the formation of glucose with compound.
# sucrase [2] = molecular target: T1, sucrase; assay: Enzyme-kinetic analysis on sucrase (Lineweaver–Burk plots); assay type: biochemical, Wistar rats; details: for Ki: from LB plots; for Inhibition Type: sucrose substrate
# Procedure: as §1, §2, §3
# [3] = read-out: Sucrase Inhibition IC50
# Sequence of maltase (D3ZTX4 1-4511): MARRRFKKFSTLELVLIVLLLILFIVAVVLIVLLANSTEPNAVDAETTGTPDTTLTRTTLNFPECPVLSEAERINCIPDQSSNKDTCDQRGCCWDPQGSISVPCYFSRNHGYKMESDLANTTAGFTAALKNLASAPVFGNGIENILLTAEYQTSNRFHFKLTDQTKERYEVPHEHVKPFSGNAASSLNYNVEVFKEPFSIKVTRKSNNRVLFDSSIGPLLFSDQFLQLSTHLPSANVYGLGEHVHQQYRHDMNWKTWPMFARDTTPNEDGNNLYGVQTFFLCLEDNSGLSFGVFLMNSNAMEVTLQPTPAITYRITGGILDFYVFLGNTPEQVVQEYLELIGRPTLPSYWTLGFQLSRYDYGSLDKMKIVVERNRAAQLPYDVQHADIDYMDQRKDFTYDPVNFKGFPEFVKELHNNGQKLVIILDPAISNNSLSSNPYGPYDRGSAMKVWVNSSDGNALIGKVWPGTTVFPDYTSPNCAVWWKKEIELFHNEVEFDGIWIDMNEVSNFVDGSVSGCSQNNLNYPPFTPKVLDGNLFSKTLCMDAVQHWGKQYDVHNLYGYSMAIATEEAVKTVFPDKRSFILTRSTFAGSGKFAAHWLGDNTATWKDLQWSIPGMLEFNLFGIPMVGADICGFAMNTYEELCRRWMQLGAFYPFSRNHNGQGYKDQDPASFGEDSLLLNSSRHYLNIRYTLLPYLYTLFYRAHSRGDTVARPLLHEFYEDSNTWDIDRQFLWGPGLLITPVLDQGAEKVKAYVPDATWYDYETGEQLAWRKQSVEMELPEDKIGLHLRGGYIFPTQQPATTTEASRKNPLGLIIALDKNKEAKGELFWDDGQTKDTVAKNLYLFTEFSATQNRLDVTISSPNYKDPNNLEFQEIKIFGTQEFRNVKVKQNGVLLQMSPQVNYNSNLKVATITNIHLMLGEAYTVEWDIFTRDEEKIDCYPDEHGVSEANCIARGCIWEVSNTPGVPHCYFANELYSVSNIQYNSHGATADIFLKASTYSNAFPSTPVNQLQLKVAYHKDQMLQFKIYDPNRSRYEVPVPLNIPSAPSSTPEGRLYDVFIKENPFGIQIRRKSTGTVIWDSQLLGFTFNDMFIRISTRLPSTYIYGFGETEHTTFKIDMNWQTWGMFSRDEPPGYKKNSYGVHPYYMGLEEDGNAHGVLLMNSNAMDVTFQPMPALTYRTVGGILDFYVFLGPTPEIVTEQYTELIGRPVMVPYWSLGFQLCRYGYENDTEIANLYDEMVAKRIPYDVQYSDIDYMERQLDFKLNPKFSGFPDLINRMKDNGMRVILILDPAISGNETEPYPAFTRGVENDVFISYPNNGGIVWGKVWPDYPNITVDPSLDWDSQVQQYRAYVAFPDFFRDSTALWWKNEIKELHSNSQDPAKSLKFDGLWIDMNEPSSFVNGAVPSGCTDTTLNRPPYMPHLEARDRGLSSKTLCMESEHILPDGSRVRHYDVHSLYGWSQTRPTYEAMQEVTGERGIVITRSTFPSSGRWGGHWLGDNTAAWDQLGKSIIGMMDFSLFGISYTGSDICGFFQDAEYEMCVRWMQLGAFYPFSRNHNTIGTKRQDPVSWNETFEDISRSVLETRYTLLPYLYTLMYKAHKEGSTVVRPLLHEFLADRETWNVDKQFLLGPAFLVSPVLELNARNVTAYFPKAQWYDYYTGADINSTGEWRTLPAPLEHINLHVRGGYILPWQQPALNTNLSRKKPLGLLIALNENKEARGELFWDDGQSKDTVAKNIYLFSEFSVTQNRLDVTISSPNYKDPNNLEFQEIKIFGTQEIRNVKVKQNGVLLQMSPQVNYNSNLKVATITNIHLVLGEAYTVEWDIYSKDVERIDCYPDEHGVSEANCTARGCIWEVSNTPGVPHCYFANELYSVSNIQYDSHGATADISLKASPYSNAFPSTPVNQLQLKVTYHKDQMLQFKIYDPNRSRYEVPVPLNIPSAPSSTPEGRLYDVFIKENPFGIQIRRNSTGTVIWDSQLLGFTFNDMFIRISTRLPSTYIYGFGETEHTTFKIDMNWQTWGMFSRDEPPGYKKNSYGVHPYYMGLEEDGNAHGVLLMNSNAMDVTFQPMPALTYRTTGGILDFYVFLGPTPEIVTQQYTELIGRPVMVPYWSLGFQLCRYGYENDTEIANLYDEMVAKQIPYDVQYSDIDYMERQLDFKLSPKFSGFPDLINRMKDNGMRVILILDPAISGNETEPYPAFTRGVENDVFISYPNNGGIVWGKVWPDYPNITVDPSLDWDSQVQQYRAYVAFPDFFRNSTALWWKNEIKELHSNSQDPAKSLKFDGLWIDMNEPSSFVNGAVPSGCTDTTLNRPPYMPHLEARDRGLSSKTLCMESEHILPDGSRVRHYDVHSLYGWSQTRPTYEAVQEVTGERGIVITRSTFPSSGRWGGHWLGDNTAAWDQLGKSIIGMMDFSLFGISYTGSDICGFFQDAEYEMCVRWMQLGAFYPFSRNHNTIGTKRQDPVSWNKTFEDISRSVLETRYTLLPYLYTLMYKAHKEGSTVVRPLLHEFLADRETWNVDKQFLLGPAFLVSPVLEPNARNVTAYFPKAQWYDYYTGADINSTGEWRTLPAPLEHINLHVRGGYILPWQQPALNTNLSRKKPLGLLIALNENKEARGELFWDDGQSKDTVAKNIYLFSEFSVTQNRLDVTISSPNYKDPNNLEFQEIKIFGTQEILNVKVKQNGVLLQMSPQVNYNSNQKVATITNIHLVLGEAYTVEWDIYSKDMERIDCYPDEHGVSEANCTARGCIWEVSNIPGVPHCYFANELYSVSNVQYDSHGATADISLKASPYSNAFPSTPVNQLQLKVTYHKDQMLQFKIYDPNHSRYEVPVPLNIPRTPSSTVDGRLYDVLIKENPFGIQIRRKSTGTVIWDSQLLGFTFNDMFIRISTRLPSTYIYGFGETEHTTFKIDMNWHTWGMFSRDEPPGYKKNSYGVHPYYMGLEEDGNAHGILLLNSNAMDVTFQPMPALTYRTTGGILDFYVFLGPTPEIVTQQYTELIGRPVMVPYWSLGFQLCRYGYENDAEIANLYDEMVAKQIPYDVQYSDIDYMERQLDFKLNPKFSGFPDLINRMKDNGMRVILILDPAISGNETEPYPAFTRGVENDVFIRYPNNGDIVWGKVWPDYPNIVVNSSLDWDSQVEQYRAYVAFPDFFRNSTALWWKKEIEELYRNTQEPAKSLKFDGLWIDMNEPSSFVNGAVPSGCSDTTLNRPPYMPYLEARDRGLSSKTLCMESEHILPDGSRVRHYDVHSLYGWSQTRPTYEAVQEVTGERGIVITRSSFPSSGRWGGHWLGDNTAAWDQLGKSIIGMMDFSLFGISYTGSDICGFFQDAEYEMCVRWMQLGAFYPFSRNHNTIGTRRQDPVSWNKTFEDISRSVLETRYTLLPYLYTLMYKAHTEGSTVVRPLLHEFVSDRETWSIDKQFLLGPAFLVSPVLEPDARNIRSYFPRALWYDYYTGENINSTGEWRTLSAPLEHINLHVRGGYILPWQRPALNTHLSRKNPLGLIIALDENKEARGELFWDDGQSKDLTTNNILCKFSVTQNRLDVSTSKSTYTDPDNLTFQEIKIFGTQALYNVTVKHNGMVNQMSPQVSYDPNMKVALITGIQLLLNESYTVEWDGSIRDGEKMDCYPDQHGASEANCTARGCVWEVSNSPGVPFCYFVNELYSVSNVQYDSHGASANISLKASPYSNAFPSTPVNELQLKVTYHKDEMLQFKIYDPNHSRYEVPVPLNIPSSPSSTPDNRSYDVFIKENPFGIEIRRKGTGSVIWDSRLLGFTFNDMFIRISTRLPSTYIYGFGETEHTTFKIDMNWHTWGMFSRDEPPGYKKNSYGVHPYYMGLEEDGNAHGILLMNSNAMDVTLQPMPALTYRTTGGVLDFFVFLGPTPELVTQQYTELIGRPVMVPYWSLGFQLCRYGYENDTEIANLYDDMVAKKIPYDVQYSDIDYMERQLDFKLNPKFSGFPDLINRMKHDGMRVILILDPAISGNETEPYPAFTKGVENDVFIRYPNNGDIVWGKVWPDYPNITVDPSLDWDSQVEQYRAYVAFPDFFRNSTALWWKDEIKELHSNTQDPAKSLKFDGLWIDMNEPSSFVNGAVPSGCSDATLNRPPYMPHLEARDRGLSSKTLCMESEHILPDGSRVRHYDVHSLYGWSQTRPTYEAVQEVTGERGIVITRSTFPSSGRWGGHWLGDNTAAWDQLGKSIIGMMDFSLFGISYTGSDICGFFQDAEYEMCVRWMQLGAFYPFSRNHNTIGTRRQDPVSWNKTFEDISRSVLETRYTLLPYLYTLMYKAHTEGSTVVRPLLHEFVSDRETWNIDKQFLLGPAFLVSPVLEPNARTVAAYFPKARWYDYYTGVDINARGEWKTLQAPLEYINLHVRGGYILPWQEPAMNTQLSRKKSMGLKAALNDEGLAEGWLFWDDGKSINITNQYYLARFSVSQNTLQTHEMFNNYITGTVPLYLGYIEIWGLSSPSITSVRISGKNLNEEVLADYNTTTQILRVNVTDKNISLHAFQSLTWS
compound,measurement,setting,value
"OC[C@H]1NC[C@H](O)[C@@H](O)[C@@H]1O [1-DNJ, 1-deoxynojirimycin]",IC50,α-amylase,> 100 µM
same,Inhibitory activity on α-amylase (in words),α-amylase,no obvious inhibitory activity
same,"α-Amylase Inhibition, Inhibition Ratio (%)",α-amylase,0%
same,Inhibition Type,maltase,Competitive inhibition
same,Selectivity sucrase over amylase (IC50 amylase/IC50 disaccharidases),sucrase [1]; IC50 amylase / IC50 sucrase,1282 times
same,"Sucrase Inhibition, Inhibition Ratio (%)",sucrase [1],100%
same,IC50,"sucrase [1]; converted from μmol/L by mol wt, read-out: Sucrase IC50 after conversion according to the molecular weight (converted)",0.0613 µM
same,IC50,sucrase [1]; [3],0.078 µM
same,Ki,sucrase [2],0.0137 µM
same,Inhibition Type,sucrase [2],Competitive inhibition
"C[C@H]1O[C@H](O[C@H]2[C@H](O)[C@@H](O)[C@@H](O[C@H]3[C@H](O)[C@@H](O)C(O)O[C@@H]3CO)O[C@@H]2CO)[C@H](O)[C@@H](O)[C@@H]1N[C@H]1C=C(CO)[C@@H](O)[C@H](O)[C@H]1O (stereo partly drawn) [Acarbose, acarbose, reference compound]",Inhibitory activity on α-amylase (in words),α-amylase,strongly inhibited
same,Inhibition Type,maltase,Competitive inhibition
same,Inhibition Type,sucrase [2],Competitive inhibition
"OC[C@H]1NC[C@@H](O)[C@@H]1O [DAB, 1,4-dideoxy-1,4-imino-D-arabinitol]",IC50,α-amylase,> 100 µM
same,Inhibitory activity on α-amylase (in words),α-amylase,no obvious inhibitory activity
same,Inhibition Type,maltase,Competitive inhibition
"OC[C@H]1NCC[C@@H](O)[C@@H]1O [FA, fagomine]",IC50,α-amylase,> 100 µM
same,Inhibitory activity on α-amylase (in words),α-amylase,no obvious inhibitory activity
same,"α-Amylase Inhibition, Inhibition Ratio (%)",α-amylase,0%
same,Inhibition Type,maltase,Competitive inhibition
same,"Sucrase Inhibition, Inhibition Ratio (%)",sucrase [1],84.6%
same,IC50,sucrase [1]; [3],13.5 µM
same,Ki,sucrase [2],3.97 µM
same,Inhibition Type,sucrase [2],Competitive inhibition
